Experimental data as given in patent US4855086A, “Novel pesticides, preparation and use” (Burroughs Wellcome Co., priority 1982, dated 1989).
Where two headings read alike, the source gives them in different places.

Columns and labels:
[1] = tested on: gamma-aminobutyric acid (GABA) release from insect synaptosomes; assay: Release of 3H-labelled GABA from insect synaptosomes (Example H); type: biochemical; conditions: 1 = most potent of five compounds
From the text: Interference with gamma-aminobutyric acid (GABA) release from insect synaptosomes is thought to be important in the insecticidal action of the compounds of the invention. Using published procedures (E. G. Gray and V. P. Whittaker, Journal of Anatomy 96, 79-87 (1962); G. Levi, V. Gallo and M. Raiter, Neurochemical Research 5(3), 281-295 (1980)), compounds of Formula I were compared with related compounds outside the scope of the invention.
Arranged in decreasing order of potency (release of ^3 H-labelled GABA), the compounds were: […]

[2] = tested on: third instar larvae of Aedes aegypti; assay: Exposure of mosquito larvae to aqueous suspension with piperonyl butoxide (Example D); type: in vivo; conditions: 2.5 (+12.5 pb) ppm; 18 hours
Procedure: Mortality was assessed after 18 hours.

[3] = tested on: female Musca domestica (WRL strain); assay: Topical application to houseflies with and without piperonyl butoxide pretreatment (Example A); conditions: for percent knockdown: 6 μg applied, 1 hour; for mortality at 0.006 mg: Musca domestica, topical, 24 h
Procedure: Where pretreatment with a synergist was used, the test compound was applied 1 hour after application of the synergist (6 μg piperonyl butoxide (PB) per insect). Knockdown was assessed after 1 hour, and mortality after 24 hours.

Sitophilus granarius = type: in vivo; conditions: 200 (+1000 pb) ppm; 6 days
male Blattella germanica = assay: Exposure of cockroaches to deposit on glass with piperonyl butoxide (Example B); type: in vivo; conditions: 700 (+700 pb) mg m^-2
Procedure: Knockdown was assessed after 10 and 60 minutes and mortality after 1 and 6 days.

houseflies = assay: Potentiation by pyrethroids, spray chamber, S-bioallethrin (Example G (ii)); type: in vivo, housefly (Musca domestica); conditions: mixture ratio 45:1
From the text: Solutions of the compounds were sprayed into a chamber and houseflies released into the chamber.

female Aedes aegypti = assay: Application to adult mosquitoes with piperonyl butoxide (Example E); type: in vivo; conditions: 2 (4 pb) μg applied
Procedure: Knockdown was assessed after 1 hour and mortality after 24 hours.

[4] = tested on: Female houseflies (Musca domestica); assay: Potentiation by other unsaturated amides in houseflies (Example G (i)); type: in vivo; conditions: 6 μg PB one hour earlier
Procedure: Female houseflies (Musca domestica) were treated with solutions of compounds of Formula I and a potential synergist both dissolved in butanone, the flies having been treated one hour earlier with 6 μg piperonyl butoxide (PB).
The dose required to prevent flight of half the flies 10 minutes after application of the compound (KD50) was determined and the factor of potentiation (FOP) was calculated by the Equation of the Harmonic Mean for mixtures of the compounds.

[5] = tested on: fully engorged female Boophilus microplus, susceptible strain; assay: Cattle tick injection test (Example F (i)); type: in vivo; conditions: 14 days; for No. dead / No. laying viable eggs: 10 ticks
Procedure: The compound was supplied as a […] solution in DMSO:Acetone (1:1). Administration of the compound was by means of a microapplicator which was preset to deliver 0.2 μl of solution. The compound in solution was injected into fully engorged female Boophilus microplus, susceptible strain, at a site just lateral to the mouthparts at the rate of 10 μg/tick. Reducing the concentration reduced the dose delivered. After injection the ticks were maintained at 24° C. and 85% RH for 14 days. At this time the ticks were examined for the presence of viable eggs which gave the percent inhibition of reproduction (% IR). The number of dead ticks was also noted.

[6] = tested on: fully engorged female B. microplus susceptible strain; assay: Cattle tick adult immersion test (Example F (ii), (iii)); type: in vivo, Boophilus microplus; conditions: adults, 10 minutes immersion, 14 days
Procedure: The compound was supplied as a 100 mg/liter solution in Esso 200/[…]. Dilution with water gave the required concentrations. Groups of 20 fully engorged female B. microplus susceptible strain were placed in a mesh basket which was immersed in the test dilution for 10 minutes. After immersion the ticks were removed, dried and then fixed to double-sided adhesive tape which was itself affixed to white plastic boards. The boards holding the ticks were held at 24° C. and 85% RH for 14 days. Individual egg masses were scored from 0-4 for quality and quantity and the total score for each group was obtained. The scores were corrected for water control oviposition, plotted on log-probit paper and the % concentration inhibiting 50% and 99% of viable oviposition determined.

B. microplus Susceptible = assay: Larval tick immersion test, susceptible strain (Example F); type: in vivo, Boophilus microplus; conditions: larvae
From the text: (§1) Larval ticks were immersed using a published method (Shaw, R. D., Cook, M. and Carson, R. E. (1968). J. Econ. Ent. 61, 1590). Mortality data are presented for B. microplus susceptible and pyrethroid resistant strain (Malchi).

[7] = tested on: B. microplus pyrethroid resistant strain (Malchi); assay: Larval tick immersion test, pyrethroid resistant strain (Example F); type: in vivo, Boophilus microplus; conditions: larvae
From the text: as §1

[8] = 6 μg PB pretreatment 1 hour before
[9] = read-out: percent mortality, 6 μg applied, 6 μg PB pretreatment 1 hour before, 24 hours
[10] = read-out: percent mortality, 6 μg applied, synergist: none, 24 hours

## CC(C)CNC(=O)/C=C/CC/C=C\C=C\c1cccc(C(F)(F)F)c1
[1]
  rank in decreasing order of potency (release of ^3 H-labelled GABA): 4

## CC(C)CNC(=O)/C=C/CC/C=C\c1ccccc1 [Example 3, N-isobutyl-7-phenylhepta-2E,6Z-dienamide]
[2]
  % mortality: 100%
[3]; [8]
  percent knockdown: 90%
[3]; synergist: none
  percent knockdown: 5%
[3]; [9]
  mortality at 0.006 mg: 95%
[3]; [10]
  mortality at 0.006 mg: 2.5%
Sitophilus granarius
  % mortality: 100%
Male Blattella germanica
  % knockdown 10 mins: 13%
  % knockdown 60 mins: 20%
  % mortality 1 day: 20%
  % mortality 6 days: 20%

## CC(C)CNC(=O)/C=C/CC/C=C\C=C\c1ccccc1 [Example 9, N-isobutyl-9-phenyl-nona-2 (E),6(Z),8(E)-trienamide]
houseflies
  LC50 (concentration for death of half the flies): 1.8%
[1]
  rank in decreasing order of potency (release of ^3 H-labelled GABA): 3
Female Aedes aegypti; 1 hour
  % knockdown: 70%
Female Aedes aegypti; 24 hours
  % mortality: 80%
[2]
  % mortality: 100%
[4]
  KD50 (dose required to prevent flight of half the flies 10 minutes after application): 8.4 μg/fly
[5]; 1 μg injected
  No. dead: 0
  No. laying viable eggs: 8
  % IR (percent inhibition of reproduction): 20%
[5]; 5 μg injected
  No. dead: 1
  No. laying viable eggs: 3
  % IR (percent inhibition of reproduction): 70%
[5]; 10 μg injected
  No. dead: 3
  No. laying viable eggs: 1
  % IR (percent inhibition of reproduction): 90%
[5]; Rhipicephalus microplus, 336 h, 1 μg injected, read-out: % Kill
  mortality at 0.001 mg: 0%
[5]; Rhipicephalus microplus, 336 h, 5 μg injected, read-out: % Kill
  mortality at 0.005 mg: 10%
[5]; Rhipicephalus microplus, 336 h, 10 μg injected, read-out: % Kill
  mortality at 0.01 mg: 30%
[6]
  IR50 (% concentration inhibiting 50% of viable oviposition): 0.026%
  IR99 (% concentration inhibiting 99% of viable oviposition): 0.1%
  LC50: 0.1%
B. microplus Susceptible
  LC50: 0.00044%
[3]; [8]
  percent knockdown: 100%
[3]; synergist: none
  percent knockdown: 95%
[3]; [9]
  mortality at 0.006 mg: 100%
[3]; [10]
  mortality at 0.006 mg: 0%
Sitophilus granarius
  % mortality: 100%
Male Blattella germanica
  % knockdown 10 mins: 7%
  % knockdown 60 mins: 7%
  % mortality 1 day: 33%
  % mortality 6 days: 40%
[7]
  LC50: 0.00022%

## CC(C)CNC(=O)/C=C/C=C/CC/C=C\C=C\c1cccc(C(F)(F)F)c1 [Example 10, N-isobutyl-11-(3'-trifluoromethylphenyl)-(2E,4E,8Z,10E)-undecatetrenamide]
[1]
  rank in decreasing order of potency (release of ^3 H-labelled GABA): 1
[4]
  KD50 (dose required to prevent flight of half the flies 10 minutes after application): 5.6 μg/fly

## CCCCC/C=C/C=C/C(=O)NCC(C)C [N--isobutyl-(2E,4E)-decadienamide, reference compound]
[4]
  KD50 (dose required to prevent flight of half the flies 10 minutes after application): 77 μg/fly

## CCCCOCCOCCOCc1cc2c(cc1CCC)OCO2 [PB, piperonyl butoxide, reference compound]
[3]
  mortality at 0.006 mg: 0%
[3]; PB alone, 6 μg per fly
  knockdown: 0%

## C=CCC1=C(C)[C@@H](OC(=O)[C@@H]2[C@@H](C=C(C)C)C2(C)C)CC1=O [S-bioallethrin, reference compound]
houseflies
  LC50 (concentration for death of half the flies): 0.05%

## CC(C)CNC(=O)/C=C/C=C/CC/C=C\C=C\c1ccc2c(c1)OCO2 [reference compound]
[1]
  rank in decreasing order of potency (release of ^3 H-labelled GABA): 2

## CC(C)CNC(=O)/C=C/CC/C=C\C=C\c1ccc2c(c1)OCO2 [reference compound]
[1]
  rank in decreasing order of potency (release of ^3 H-labelled GABA): 5
